Broadly, the mass density is the mass of a sample divided by its volume. For orientation: refractive index means the speed of light in vacuum divided by its phase velocity in the sample.

± gives the expanded uncertainty stated by the source.

The conditions of data set [1]: 298.15 K; 101 kPa; Liquid.
Data set [2] in a line: refractive index (Na D-line) (dimensionless). The settings on record: 298.15 K; 101.33 kPa; Liquid.
Data set [3] is described as follows: xn = mol fraction of the nth substance listed. The settings on record: 298.15 K, 101 kPa, Liquid.
Data set [4] is described as follows: refractive index (Na D-line) (dimensionless); xn = mol fraction of the nth substance listed. As to conditions: 298.15 K, 101 kPa, Liquid.

For `COC(=O)OC` [dimethyl carbonate], in data set [1], the mass density is 1063.28 ± 0.28 kg/m3. In addition, in data set [2], the refractive index is listed as 1.36647 ± 0.00064.

Regarding `CCOS(=O)(=O)[O-].CCn1cc[n+](C)c1` [1-ethyl-3-methylimidazolium ethyl sulfate], the mass density in data set [1] is reported as 1236.33 ± 0.8 kg/m3. Also, the refractive index in data set [2] turned out to be 1.47908 ± 0.00066.

Consider `CCCCn1cc[n+](C)c1.F[B-](F)(F)F` [1-butyl-3-methylimidazolium tetrafluoroborate] + CO, for which the mass density in data set [3] (x2 = 0) came to 1192.78 ± 0.71 kg/m3; in data set [3] (x2 = 0.0517), 1188.58 ± 0.68 kg/m3; in data set [3] (x2 = 0.104), 1183.87 ± 0.66 kg/m3; in data set [3] (x2 = 0.1995), 1174.09 ± 0.62 kg/m3; in data set [3] (x2 = 0.2975), 1162.14 ± 0.57 kg/m3; in data set [3] (x2 = 0.3993), 1146.82 ± 0.52 kg/m3. Moreover, the mass density in data set [3] (x2 = 0.5002) amounted to 1127.34 ± 0.48 kg/m3; in data set [3] (x2 = 0.599), 1102.37 ± 0.42 kg/m3; in data set [3] (x2 = 0.6994) it was 1067.86 ± 0.35 kg/m3; in data set [3] (x2 = 0.7997), 1016.59 ± 0.26 kg/m3; in data set [3] (x2 = 0.9), 934.6 ± 0.29 kg/m3; in data set [3] (x2 = 0.9501), 872.82 ± 0.37 kg/m3. The refractive index stood at 1.41831 ± 0.00066 in data set [4] (x2 = 0); 1.41844 ± 0.00066 in data set [4] (x2 = 0.0517); 1.41726 ± 0.00066 in data set [4] (x2 = 0.104); 1.41454 ± 0.00066 in data set [4] (x2 = 0.1995); 1.41296 ± 0.00065 in data set [4] (x2 = 0.2975); 1.41485 ± 0.00065 in data set [4] (x2 = 0.3993). Moreover, the refractive index in data set [4] (x2 = 0.5002) amounted to 1.41652 ± 0.00065; in data set [4] (x2 = 0.599), 1.41435 ± 0.00065; in data set [4] (x2 = 0.6994), 1.40537 ± 0.00065; in data set [4] (x2 = 0.7997) it was 1.39145 ± 0.00064; in data set [4] (x2 = 0.9), 1.37496 ± 0.00064; in data set [4] (x2 = 0.9501) it was 1.36221 ± 0.00064.

With `CCCCn1cc[n+](C)c1.F[B-](F)(F)F` [1-butyl-3-methylimidazolium tetrafluoroborate], the mass density in data set [1] came out at 1192.78 ± 0.71 kg/m3. The refractive index in data set [2] turned out to be 1.41831 ± 0.00066.

Consider `CO` [methanol], for which the mass density in data set [1] turned out to be 786.72 ± 0.49 kg/m3. Further, the refractive index in data set [2] came to 1.32668 ± 0.00064.

These data come from the NIST ThermoML archive (doi:10.1021/je9008624).
